In US20260159519A1, “IMIDAZOPYRIDAZINE SUBSTITUTED BENZENE RING DERIVATIVE, PREPARATION METHOD, PHARMACEUTICAL COMPOSITION AND USE” (SHANGHAI SIMR BIOTECHNOLOGY CO., LTD., priority 2022, published 2026):

Tests used:
[1] = target: T1, human α2-GABAA receptor (α2-GABAAR-HEK293 cells) (Homo sapiens, UniProt P18507+P47869); experiment: Whole-cell patch-clamp electrophysiology, positive allosteric modulatory activity on α2-GABAA receptor; assay type: cell-based; details: read-out: α2-GABAA positive allosteric modulatory activity
T1 construct: expressed in transfected cells

[2] = target: T2, human α2-GABAA receptor (BZD site, membrane protein of HEK293 cells) (Homo sapiens, UniProt P18507+P47869); experiment: Radioligand competitive binding assay (3H-flunitrazepam) at the BZD site of the α2-GABAA receptor; details: competition with 1 nM 3H-flunitrazepam; Ki calculated from IC50; read-out: α2 Ki
T2 construct: expressed in transfected cells

[3] = target: T3, human α1-GABAA receptor (α1-GABAAR-HEK293 cells) (Homo sapiens, UniProt P14867+P18507); experiment: Whole-cell patch-clamp electrophysiology, positive allosteric modulatory activity on α1-GABAA receptor; assay type: cell-based; details: read-out: α1-GABAA positive allosteric modulatory activity
T3 construct: expressed in transfected cells

activation at 0.1 µM [1]	Ki [2]	activation at 0.1 µM [3]	SMILES
96%	6.85 nM	13%	CCN1C(=O)COc2cc(-c3cc(-c4cnnc5c4ncn5CC)ccc3F)c(OC)cc21 [Example 31, 4-Ethyl-7-(5-(7-ethyl-7H-imidazo[4,5-c]pyridazin-4-yl)-2-fluorophenyl)-6-methoxy-2H-benzo[b][1,4]oxazin-3(4H)-one]
145%	2.92 nM	27%	CCn1cnc2c(-c3ccc(F)c(-c4cc5c(cc4OC)N(C)C(=O)CO5)c3)cnnc21 [Example 42, 7-(5-(7-Ethyl-7H-imidazo[4,5-c]pyridazin-4-yl)-2-fluorophenyl)-6-methoxy-4-methyl-2H-benzo[b][1,4]oxazin-3(4H)-one]
114%	3.38 nM	3%	CCn1cnc2c(-c3ccc(F)c(-c4cc5oc(=O)n(C)c5cc4OC)c3)cnnc21 [Example 87, 6-(5-(7-Ethyl-7H-imidazo[4,5-c]pyridazin-4-yl)-2-fluorophenyl)-5-methoxy-3-methylbenzo[d]oxazol-2(3H)-one]

The remaining lines, values behind:

SMILES	activation at 0.1 µM [1]	Ki [2]	activation at 0.1 µM [3]
COc1cc2c(cc1-c1cc(-c3cnnc4c3ncn4C(C)C)ccc1F)OCC(=O)N2C [Example 36, 7-(2-Fluoro-5-(7-isopropyl-7H-imidazo[4,5-c]pyridazin-4-yl)phenyl)-6-methoxy-4-methyl-2H-benzo[b][1,4]oxazin-3(4H)-one]	137%	5.73 nM	25%
CCn1cnc2c(-c3ccc(F)c(-c4cc5c(cc4OC)N(C)C(=O)C5)c3)cnnc21 [Example 161, 5-(5-(7-Ethyl-7H-imidazo[4,5-c]pyridazin-4-yl)-2-fluorophenyl)-6-methoxy-1-methyldihydro-2-one]	118%	8.7 nM	65%
